Where a name gives a salt, the structure may show the parent alone. ± gives the standard error.
Key:
621-102 (TSC2-deficient) = experiment: relative viability vs DMSO; higher = less cytotoxic; settings: serum: 10% FBS, 72 h
621-103 (TSC2-rescued) = experiment: as above; settings: serum: 10% FBS, 72 h
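Further: immortalized renal angiomyolipoma cells stably carrying empty vector or TSC2, dosed in 384-well plates in DMEM, viability normalized to vehicle-treated wells within each plate.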

| Compound | relative viability (621-102 (TSC2-deficient); 0.0001 µM) | relative viability (621-102 (TSC2-deficient); 0.001 µM) | relative viability (621-102 (TSC2-deficient); 0.01 µM) | relative viability (621-102 (TSC2-deficient); 0.1 µM) | relative viability (621-102 (TSC2-deficient); 1 µM) | relative viability (621-102 (TSC2-deficient); 10 µM) | relative viability (621-103 (TSC2-rescued); 0.0001 µM) | relative viability (621-103 (TSC2-rescued); 0.001 µM) | relative viability (621-103 (TSC2-rescued); 0.01 µM) | relative viability (621-103 (TSC2-rescued); 0.1 µM) | relative viability (621-103 (TSC2-rescued); 1 µM) | relative viability (621-103 (TSC2-rescued); 10 µM) |
| --- | --- | --- | --- | --- | --- | --- | --- | --- | --- | --- | --- | --- |
| O=C(c1ccc(F)cc1)N1CCC[C@H](c2nc(-c3ccc(F)cc3)no2)C1 | 90.9 ± 4.4% | 89.5 ± 2% | 107 ± 1.4% | 104.7 ± 0.73% | 97.3 ± 4.3% | 89.7 ± 2.8% | 102 ± 2.5% | 97.8 ± 7.7% | 100 ± 3.3% | 103 ± 2.4% | 105 ± 0.68% | 108 ± 4.5% |
| CC1=C2C[C@H]3[C@@H](CC=C4C[C@@H](O)CC[C@@]43C)[C@@H]2CC[C@]12O[C@@H]1C[C@H](C)CN[C@H]1[C@H]2C [Cyclopamine] | 107 ± 4% | 95.64 ± 0.15% | 99.7 ± 0.74% | 103 ± 1.3% | 112.9 ± 0.35% | 95.49 ± 0.81% | 100 ± 1.7% | 101 ± 1.4% | 98.16 ± 0.86% | 100.3 ± 0.2% | 99.22 ± 0.46% | 98.9 ± 2.2% |
| CC(C)(C)c1[nH]cnc1/C=c1\[nH]c(=O)/c(=C/c2ccccc2)[nH]c1=O [NPI-2358] | 88.4 ± 2.1% | 50.4 ± 2% | 55.9 ± 1.8% | 42 ± 0.5% | 36.5 ± 2% | 41.3 ± 2.3% | 86.9 ± 4.1% | 45.4 ± 0.88% | 62 ± 1.6% | 36.2 ± 0.99% | 32.4 ± 0.92% | 33.1 ± 0.41% |
| CC[C@@H]1C(=O)N(C)c2cnc(Nc3ccc(C(=O)NC4CCN(C)CC4)cc3OC)nc2N1C1CCCC1 [BI 2536] | 98.2 ± 3.1% | 80.3 ± 1.5% | 47.9 ± 1.7% | 44.6 ± 1.5% | 51.66 ± 0.21% | 29 ± 0.68% | 98.6 ± 1.3% | 66.74 ± 0.51% | 53 ± 1.2% | 43.5 ± 1.5% | 50.6 ± 0.58% | 13 ± 0.48% |
| CCNC(=O)c1cc2c(-c3cc(OCCN4CCCC4)c(Cl)cc3Cl)nc(N)nc2s1 [NVP-BEP800] | 97.39 ± 0.18% | 102 ± 6.3% | 107 ± 5.5% | 102 ± 1.2% | 56.1 ± 4% | 19.3 ± 1.1% | 101 ± 2.1% | 99.72 ± 0.67% | 99.48 ± 0.53% | 107 ± 2% | 43.99 ± 0.26% | 4.6 ± 0.3% |
| Cc1cn([C@H]2C=C[C@@H](CO)O2)c(=O)[nH]c1=O [Stavudine] | 75.4 ± 3.2% | 76.7 ± 0.81% | 81.206 ± 0.072% | 89.1 ± 8.5% | 83.4 ± 2.3% | 71.2 ± 1.9% | 105 ± 1.2% | 99.6 ± 5.1% | 110 ± 5.4% | 109 ± 5.7% | 93.2 ± 2.2% | 91.2 ± 1.3% |
| COc1ccccc1N1CCN(CC(O)COc2cccc3ccccc23)CC1 (stereo unspecified) [Naftopidil Dihydrochloride] | 103 ± 5.6% | 109 ± 1.6% | 108.5 ± 0.88% | 106 ± 1.2% | 105.81 ± 0.046% | 110 ± 5% | 110 ± 0.54% | 97.8 ± 11% | 106.7 ± 0.54% | 106 ± 3.4% | 104 ± 1.7% | 108 ± 4.8% |
| Cc1ncc([N+](=O)[O-])n1CC(C)O (stereo unspecified) [Secnidazole] | 108.6 ± 0.66% | 118.1 ± 0.34% | 108 ± 3.4% | 101 ± 3.9% | 102.2 ± 0.53% | 111 ± 3% | 101 ± 2.1% | 105 ± 3.6% | 105 ± 4.5% | 105.2 ± 0.64% | 100 ± 4.3% | 93.6 ± 4.8% |
| CN(C)C(=O)C(CCN1CCC(O)(c2ccc(Cl)cc2)CC1)(c1ccccc1)c1ccccc1 [Loperamide HCl] | 112.8 ± 0.39% | 107 ± 1.7% | 99.2 ± 2.1% | 109 ± 4.1% | 106 ± 4.2% | 82.5 ± 1.3% | 91.7 ± 4.4% | 84.8 ± 2.2% | 97.2 ± 1.4% | 98.2 ± 1.8% | 92.17 ± 0.64% | 59.5 ± 0.85% |
| CN1CC[C@H](c2c(O)cc(O)c3c(=O)cc(-c4ccccc4Cl)oc23)[C@H](O)C1 [Flavopiridol HCl] | 103 ± 1.6% | 98.59 ± 0.27% | 93.1 ± 5.7% | 49.2 ± 0.89% | 10.5 ± 0.34% | 10.1 ± 1.1% | 91.4 ± 6.3% | 88 ± 1.4% | 90.7 ± 3.4% | 55.2 ± 0.46% | 13 ± 0.61% | 11 ± 0.25% |
| Clc1ccc(Nc2nnc(Cc3ccncc3)c3ccccc23)cc1 [Vatalanib] | 94.7 ± 6.8% | 102 ± 9.1% | 115 ± 1.4% | 108 ± 1.8% | 110 ± 2.7% | 117.2 ± 0.94% | 104 ± 1.1% | 106 ± 2% | 106 ± 2.4% | 105 ± 1.4% | 103 ± 2.8% | 110.66 ± 0.097% |
| CC(C)c1cc(-c2ccc(F)c3ccccc23)nc(N)n1 | 91.6 ± 2.5% | 107 ± 7% | 99.3 ± 4.8% | 94.6 ± 1.2% | 93.4 ± 2.1% | 97.22 ± 0.33% | 96.2 ± 4.6% | 92.2 ± 4.8% | 97.9 ± 1.5% | 107 ± 3.5% | 101.7 ± 0.2% | 98.4 ± 1.7% |
| Cc1cc(Nc2cc(N3CCN(C)CC3)nc(/C=C/c3ccccc3)n2)n[nH]1 [ENMD-2076] | 112 ± 2.8% | 98.5 ± 1.7% | 103.4 ± 0.19% | 98.213 ± 0.069% | 81.1 ± 2.8% | 34.56 ± 0.15% | 100.4 ± 0.78% | 100.9 ± 0.97% | 104 ± 1.5% | 102 ± 2.1% | 73 ± 2.3% | 12.7 ± 0.4% |
| N#CC1(c2ccc(NC(=O)c3cccnc3NCc3ccncc3)cc2)CCCC1 [Apatinib] | 101 ± 3.1% | 109.9 ± 0.77% | 111.8 ± 0.42% | 111 ± 4.4% | 102 ± 4.9% | 101.34 ± 0.059% | 111.1 ± 1.1% | 103 ± 3.9% | 110 ± 2.4% | 107 ± 2.4% | 107 ± 7.4% | 103.7 ± 0.61% |
| CCC(C)(Oc1ccc(C2(c3ccc(OC(C)(CC)C(=O)O)cc3)CCCCC2)cc1)C(=O)O (stereo unspecified) [Clinofibrate] | 99.8 ± 0.13% | 107 ± 1.1% | 99.1 ± 2.4% | 99.1 ± 1.4% | 94.4 ± 4.2% | 107 ± 2.1% | 102.4 ± 0.13% | 93 ± 7.7% | 94.9 ± 0.43% | 105 ± 1.8% | 105 ± 3.6% | 91.3 ± 2.9% |
| O=C1CCc2cc(OCCCCc3nnnn3C3CCCCC3)ccc2N1 [Cilostazol] | 109 ± 1.2% | 102 ± 0.67% | 107.6 ± 0.99% | 109 ± 3% | 96.51 ± 0.85% | 101 ± 2.5% | 107.6 ± 0.22% | 100.9 ± 0.71% | 108 ± 1.6% | 104.6 ± 1% | 101 ± 3.3% | 97.51 ± 0.021% |
| CC[C@@H]1C(=O)N(C)c2cnc(Nc3ccc(C(=O)N[C@H]4CC[C@H](N5CCN(CC6CC6)CC5)CC4)cc3OC)nc2N1C(C)C [BI6727 (Volasertib)] | 96.1 ± 4.3% | 72.9 ± 4.5% | 59.6 ± 3% | 42.4 ± 0.63% | 41.9 ± 0.7% | 1.64 ± 0.065% | 76.3 ± 0.95% | 61.81 ± 0.53% | 53.6 ± 0.88% | 49 ± 2% | 44.3 ± 1.4% | 5.99 ± 0.27% |
| COc1cc2ncnc(Nc3cccc(Br)c3)c2cc1OC | 96.7 ± 1% | 107 ± 3.8% | 115 ± 5.2% | 105.5 ± 0.2% | 107.6 ± 0.58% | 75.6 ± 6.2% | 102 ± 1.5% | 102 ± 1.7% | 103.2 ± 1% | 98.4 ± 2.3% | 101 ± 1.6% | 92.1 ± 4.8% |

From the supplement of paper PMC8960247
